Publication PMC5290327, “SC83288 is a clinical development candidate for the treatment of severe malaria” (Nature Communications, 2017)
In brackets after ≈: the same amount, converted by molar mass. Read-outs that look alike come from different tables or passages of the source.

How the values were obtained:
H1 (h) = target: T1, H1 (h) (Homo sapiens, UniProt P35367); assay type: binding
T1 construct: Cerep

a2 (non-selective) = assay: Radioligand binding
Procedure: (§1) The study was carried out by Cerep (Celle l'Evescault, France). An in vitro pharmacological profiling panel was designed to detect potential high-risk clinical adverse drug reactions. The panel comprised of 54 targets.
(§2) The specific ligand binding to the receptors was defined as the difference between the total binding and the non-specific binding determined in the presence of an excess of unlabelled ligand. Results were expressed as a per cent of control specific binding and as a per cent inhibition of control specific obtained in the presence of the test compounds. Results showing an inhibition (or stimulation) >50% were considered to represent significant effects of the test compounds. […] The IC50 values were determined by non-linear regression analysis of the competition curves generated with mean replicate values using Hill equation curve fitting. The inhibition constants (Ki) were calculated using the Cheng Prusoff equation.

a1 (non-selective) = assay: Radioligand binding
Procedure: as §1, §2

sst (non-selective) = assay: Radioligand binding
Procedure: as §1, §2

5-HT2B (h) = target: T2, 5-HT2B (h) (Homo sapiens, UniProt P41595); assay: Radioligand binding
T2 construct: Cerep (contract screening)
Procedure: as §1, §2

[1] = tested on: Ca2+ channel (L, verapamil site); assay: Radioligand binding
Procedure: as §1, §2

A2A (h) = target: T3, A2A (h) (Homo sapiens, UniProt P29274); assay: Radioligand binding
T3 construct: Cerep (contract study)

human T-cells = assay: Cytotoxicity; conditions: 50 μM
M1 (h) = target: T4, M1 (h) (Homo sapiens, UniProt P11229); assay type: binding
T4 construct: Cerep

CXCR2 (IL-8B) (h) = target: T5, CXCR2 (IL-8B) (h) (Homo sapiens, UniProt P25025); assay: Radioligand binding
T5 construct: Cerep
T5 sequence (P25025 1-360): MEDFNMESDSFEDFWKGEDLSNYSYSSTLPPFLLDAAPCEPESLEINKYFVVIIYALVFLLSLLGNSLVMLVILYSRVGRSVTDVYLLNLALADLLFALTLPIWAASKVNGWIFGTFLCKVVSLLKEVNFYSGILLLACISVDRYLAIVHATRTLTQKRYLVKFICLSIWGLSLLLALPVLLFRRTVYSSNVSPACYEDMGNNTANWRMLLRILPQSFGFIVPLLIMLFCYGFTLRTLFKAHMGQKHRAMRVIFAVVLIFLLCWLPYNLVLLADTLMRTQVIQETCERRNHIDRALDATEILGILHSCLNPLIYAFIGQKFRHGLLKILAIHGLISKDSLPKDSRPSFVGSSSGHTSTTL

CYP2A6 = CYP2A6 (Homo sapiens, UniProt P11509); assay: CYP inhibition, human liver microsomes; conditions: CYP2A6, coumarin to 7-OH-coumarin, 10 µM
D1 (h) = target: T6, D1 (h) (Homo sapiens, UniProt P21728); assay: Radioligand binding
T6 construct: Cerep

CYP2C19 = CYP2C19 (Homo sapiens, UniProt P33261); assay: CYP inhibition, human liver microsomes; conditions: 10 µM
Plasmodium berghei = assay: Rodent malaria model; assay type: in vivo; conditions: P. berghei, 30 mg kg-1 i.p. 1x4 days
Procedure: This was the case for both an in vivo 4 day dosing regimen of 30 mg kg^−1 per day and an ex vivo one-cycle growth inhibition assay. […] Differential therapeutic efficacy in various rodent model systems is a well-established phenomenon and is typically associated with charged compounds, such as positively charged amidines and negatively charged phosphoric acid or carboxylic acid containing drugs. The phenomenon is explained based on selective uptake of charged compounds through parasite-induced channels, termed new permeation pathways, in the host cell plasma membrane and species-specific characteristics of the new permeation pathways.

m (MOP) (h) = target: T7, m (MOP) (h) (Homo sapiens, UniProt P35372); assay: Radioligand binding
T7 construct: Cerep

P. falciparum strain 7G8 = assay: microbe, parasite or virus in culture; assay type: cell-based; conditions: Plasmodium falciparum
[2] = Stability in physiological solutions; assay type: physicochemical; conditions: artificial gastric juice, simulated intestinal fluid, PBS, human plasma; 6 h at 37 °C
Procedure: SC81458 and SC83288 were soluble in water (890 and 940 μg ml^−1, respectively) and organic solvents. […] The compounds were stable in different physiological solutions, including artificial gastric juice, simulated intestinal fluid, phosphate-buffered saline and human plasma, when incubated for 6 h at 37 °C.

[3] = target: T8, norepinephrine transporter (h) (Homo sapiens, UniProt P23975); assay: Radioligand binding
T8 construct: Cerep (contract screening)

Solubility in water = conditions: water
PK study = assay type: in vivo, mouse; conditions: for half-life: mouse; for MRT last: read-out: MRT0-t; for time of peak plasma concentration (Cmax): single i.p. dose in mice
Procedure: On the treatment day, all animals were weighed and the dosing volume was calculated for each individual animal according to its actual body weight. All animal were dosed once. Blood samples were taken at different time points and plasma was collected after centrifugation (10,000g, 10 min, 4 °C). Plasma samples were analysed by LC–MS/MS. […] All relevant observations were recorded. The PK studies in cynomolgus monkeys and beagle dogs were performed by the Laboratory of Pharmacology and Toxicology (LPT), Hamburg, and PK and toxicity studies in mice and rats were performed by the 4SC Discovery GmbH, Munich. PK parameters were obtained by a non-compartment analysis, using Kinetica 4.1 (Thermo Scientific).

[4] = In vitro metabolism in liver microsomes; conditions: dog liver microsomes, 10 μM
A3 (h) = target: T9, A3 (h) (Homo sapiens, UniProt P0DMS8); assay: Radioligand binding
T9 construct: Cerep (contract study)

[5] = CYP2C19a, omeprazole to 5-OH-omeprazole
[6] = CYP2C19b, omeprazole to desmethylomeprazole
[7] = plasma, iv, mouse i.v. 2 mg kg^−1
[8] = plasma, ip, mouse i.p. 20 mg kg^−1

Sequence of CYP2C19 (P33261 whole entry): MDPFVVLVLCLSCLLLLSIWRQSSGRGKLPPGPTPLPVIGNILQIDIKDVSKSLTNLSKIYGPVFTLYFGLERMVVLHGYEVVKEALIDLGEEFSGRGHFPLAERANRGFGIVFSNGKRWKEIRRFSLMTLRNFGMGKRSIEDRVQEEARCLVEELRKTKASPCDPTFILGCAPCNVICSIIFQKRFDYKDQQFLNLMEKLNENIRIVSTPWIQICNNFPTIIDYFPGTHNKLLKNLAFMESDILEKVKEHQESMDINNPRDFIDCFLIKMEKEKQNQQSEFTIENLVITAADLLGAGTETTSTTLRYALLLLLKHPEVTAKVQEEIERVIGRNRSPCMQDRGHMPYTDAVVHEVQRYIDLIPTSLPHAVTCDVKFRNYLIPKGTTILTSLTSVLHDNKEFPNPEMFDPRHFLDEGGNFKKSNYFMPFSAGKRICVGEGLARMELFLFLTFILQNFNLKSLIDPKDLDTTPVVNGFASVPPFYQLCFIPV
T8 sequence (P23975 whole entry): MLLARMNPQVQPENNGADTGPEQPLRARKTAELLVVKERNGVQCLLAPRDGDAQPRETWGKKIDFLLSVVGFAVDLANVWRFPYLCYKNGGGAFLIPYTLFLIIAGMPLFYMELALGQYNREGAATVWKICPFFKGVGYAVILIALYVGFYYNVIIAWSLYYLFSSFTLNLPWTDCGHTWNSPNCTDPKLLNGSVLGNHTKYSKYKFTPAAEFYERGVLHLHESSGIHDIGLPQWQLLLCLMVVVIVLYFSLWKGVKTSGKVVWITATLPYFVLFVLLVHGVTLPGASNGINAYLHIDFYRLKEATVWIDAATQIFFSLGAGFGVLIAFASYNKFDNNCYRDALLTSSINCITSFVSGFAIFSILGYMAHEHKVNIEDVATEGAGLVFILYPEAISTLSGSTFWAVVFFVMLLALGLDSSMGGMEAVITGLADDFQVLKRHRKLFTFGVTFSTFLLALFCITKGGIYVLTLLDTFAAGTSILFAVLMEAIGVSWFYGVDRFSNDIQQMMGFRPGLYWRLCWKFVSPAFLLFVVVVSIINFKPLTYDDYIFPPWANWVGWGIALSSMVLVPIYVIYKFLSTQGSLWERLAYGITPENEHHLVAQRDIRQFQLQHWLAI
T9 sequence (P0DMS8 whole entry): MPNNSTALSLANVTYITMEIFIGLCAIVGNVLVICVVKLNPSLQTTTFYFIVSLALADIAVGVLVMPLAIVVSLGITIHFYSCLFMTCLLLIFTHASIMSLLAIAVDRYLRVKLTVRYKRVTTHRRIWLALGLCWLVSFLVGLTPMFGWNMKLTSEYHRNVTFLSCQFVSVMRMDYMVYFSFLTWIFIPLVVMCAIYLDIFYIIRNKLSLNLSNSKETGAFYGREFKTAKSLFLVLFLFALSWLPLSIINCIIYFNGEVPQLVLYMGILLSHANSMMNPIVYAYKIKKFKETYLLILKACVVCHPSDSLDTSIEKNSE
T3 sequence (P29274 whole entry): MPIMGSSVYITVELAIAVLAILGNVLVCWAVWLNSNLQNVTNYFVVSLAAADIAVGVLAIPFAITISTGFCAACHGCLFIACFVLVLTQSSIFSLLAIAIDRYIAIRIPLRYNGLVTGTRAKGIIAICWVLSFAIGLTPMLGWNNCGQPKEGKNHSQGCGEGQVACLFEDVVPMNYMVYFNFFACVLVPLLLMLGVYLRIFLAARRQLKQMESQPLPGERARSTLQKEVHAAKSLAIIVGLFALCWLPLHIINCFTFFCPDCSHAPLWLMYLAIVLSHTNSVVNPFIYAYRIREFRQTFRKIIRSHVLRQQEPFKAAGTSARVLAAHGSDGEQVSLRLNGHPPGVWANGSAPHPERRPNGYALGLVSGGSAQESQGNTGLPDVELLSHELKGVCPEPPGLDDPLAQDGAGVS
T1 sequence (P35367 whole entry): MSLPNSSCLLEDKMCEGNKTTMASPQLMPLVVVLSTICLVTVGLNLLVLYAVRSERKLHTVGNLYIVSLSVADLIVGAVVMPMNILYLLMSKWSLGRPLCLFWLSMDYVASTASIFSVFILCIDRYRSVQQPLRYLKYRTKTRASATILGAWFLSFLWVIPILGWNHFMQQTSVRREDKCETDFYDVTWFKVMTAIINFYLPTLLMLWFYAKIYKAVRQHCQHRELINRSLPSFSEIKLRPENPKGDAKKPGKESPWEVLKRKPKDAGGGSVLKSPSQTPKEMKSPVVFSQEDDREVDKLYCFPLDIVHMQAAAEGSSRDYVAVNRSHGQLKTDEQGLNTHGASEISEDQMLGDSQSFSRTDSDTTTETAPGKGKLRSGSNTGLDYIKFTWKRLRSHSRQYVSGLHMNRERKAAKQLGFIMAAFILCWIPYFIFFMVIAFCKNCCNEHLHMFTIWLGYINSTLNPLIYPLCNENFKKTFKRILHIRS
T6 sequence (P21728 whole entry): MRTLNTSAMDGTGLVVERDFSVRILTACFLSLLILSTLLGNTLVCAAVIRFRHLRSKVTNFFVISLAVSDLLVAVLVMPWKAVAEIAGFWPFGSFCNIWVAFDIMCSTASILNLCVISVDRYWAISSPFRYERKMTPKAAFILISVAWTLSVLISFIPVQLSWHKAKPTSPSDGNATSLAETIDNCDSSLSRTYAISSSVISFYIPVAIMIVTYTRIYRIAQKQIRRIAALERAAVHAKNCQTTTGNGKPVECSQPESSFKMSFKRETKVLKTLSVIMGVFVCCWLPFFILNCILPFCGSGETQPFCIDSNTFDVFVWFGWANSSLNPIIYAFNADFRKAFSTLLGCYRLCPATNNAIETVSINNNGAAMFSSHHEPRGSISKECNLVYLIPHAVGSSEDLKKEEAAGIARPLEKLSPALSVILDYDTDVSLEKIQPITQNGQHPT
Sequence of CYP2A6 (P11509 whole entry): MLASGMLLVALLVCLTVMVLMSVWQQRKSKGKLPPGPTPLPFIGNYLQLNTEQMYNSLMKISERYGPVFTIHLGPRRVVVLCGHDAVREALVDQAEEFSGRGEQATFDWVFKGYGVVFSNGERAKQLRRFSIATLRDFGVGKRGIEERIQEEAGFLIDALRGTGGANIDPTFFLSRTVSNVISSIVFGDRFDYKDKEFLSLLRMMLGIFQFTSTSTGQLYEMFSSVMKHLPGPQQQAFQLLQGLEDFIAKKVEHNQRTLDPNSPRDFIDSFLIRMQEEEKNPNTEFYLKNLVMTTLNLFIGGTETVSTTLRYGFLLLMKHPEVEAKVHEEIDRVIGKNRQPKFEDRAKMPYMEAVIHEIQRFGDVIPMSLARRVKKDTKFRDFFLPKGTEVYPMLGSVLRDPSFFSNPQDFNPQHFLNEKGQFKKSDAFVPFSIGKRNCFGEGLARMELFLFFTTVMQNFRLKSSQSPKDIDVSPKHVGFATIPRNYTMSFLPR
T7 sequence (P35372 whole entry): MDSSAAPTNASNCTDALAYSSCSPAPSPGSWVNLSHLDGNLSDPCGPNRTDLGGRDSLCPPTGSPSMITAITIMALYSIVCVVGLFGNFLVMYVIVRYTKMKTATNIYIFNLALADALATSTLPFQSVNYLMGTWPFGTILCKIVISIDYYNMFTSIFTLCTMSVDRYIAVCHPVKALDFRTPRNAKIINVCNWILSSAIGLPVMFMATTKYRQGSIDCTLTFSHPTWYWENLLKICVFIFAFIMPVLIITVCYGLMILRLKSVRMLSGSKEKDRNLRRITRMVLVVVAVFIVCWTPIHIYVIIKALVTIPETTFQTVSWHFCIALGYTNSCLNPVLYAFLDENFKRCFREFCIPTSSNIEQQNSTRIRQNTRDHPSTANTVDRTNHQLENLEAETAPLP
T2 sequence (P41595 whole entry): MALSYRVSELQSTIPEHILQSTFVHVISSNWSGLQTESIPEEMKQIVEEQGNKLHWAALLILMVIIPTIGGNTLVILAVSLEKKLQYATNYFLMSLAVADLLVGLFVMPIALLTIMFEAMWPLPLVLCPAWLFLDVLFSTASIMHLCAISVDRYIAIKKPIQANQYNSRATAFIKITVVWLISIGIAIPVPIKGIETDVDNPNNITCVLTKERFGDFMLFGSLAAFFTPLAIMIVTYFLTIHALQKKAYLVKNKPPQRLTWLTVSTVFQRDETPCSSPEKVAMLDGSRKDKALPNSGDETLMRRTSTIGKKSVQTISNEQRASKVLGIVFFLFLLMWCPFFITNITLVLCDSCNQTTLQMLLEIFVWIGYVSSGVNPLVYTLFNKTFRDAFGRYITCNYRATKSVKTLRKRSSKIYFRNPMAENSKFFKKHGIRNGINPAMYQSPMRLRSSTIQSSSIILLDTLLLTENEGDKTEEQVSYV
T4 sequence (P11229 whole entry): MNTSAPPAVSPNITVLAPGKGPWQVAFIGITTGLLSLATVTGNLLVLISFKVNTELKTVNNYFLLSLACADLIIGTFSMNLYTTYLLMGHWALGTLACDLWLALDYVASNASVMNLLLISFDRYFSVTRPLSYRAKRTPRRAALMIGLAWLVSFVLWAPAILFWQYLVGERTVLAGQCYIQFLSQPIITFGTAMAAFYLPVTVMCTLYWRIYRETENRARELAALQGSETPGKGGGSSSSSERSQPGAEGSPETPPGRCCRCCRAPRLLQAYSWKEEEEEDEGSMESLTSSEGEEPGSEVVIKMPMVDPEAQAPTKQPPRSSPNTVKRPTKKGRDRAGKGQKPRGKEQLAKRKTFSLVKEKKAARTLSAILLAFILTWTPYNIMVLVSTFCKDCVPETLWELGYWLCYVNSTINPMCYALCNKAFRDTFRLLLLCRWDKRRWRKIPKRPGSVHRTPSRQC

| SMILES | Inhibition of control specific binding (H1 (h)) | Inhibition of control specific binding (a2 (non-selective)) | Inhibition of control specific binding (a1 (non-selective)) | Inhibition of control specific binding (sst (non-selective)) | Inhibition of control specific binding (5-HT2B (h)) | Inhibition of control specific binding [1] | Inhibition of control specific binding (A2A (h)) | in vitro propagation / cytotoxicity (human T-cells) | Inhibition of control specific binding (M1 (h)) | Inhibition of control specific binding (CXCR2 (IL-8B) (h)) | Remaining enzyme activity (CYP2A6) | Inhibition of control specific binding (D1 (h)) | Remaining enzyme activity (CYP2C19; [5]) | Remaining enzyme activity (CYP2C19; [6]) | Outcome (Plasmodium berghei) | Inhibition of control specific binding (m (MOP) (h)) | IC50 (P. falciparum strain 7G8) | stability in physiological solutions [2] | Inhibition of control specific binding [3] | solubility (Solubility in water) | also measured |
| --- | --- | --- | --- | --- | --- | --- | --- | --- | --- | --- | --- | --- | --- | --- | --- | --- | --- | --- | --- | --- | --- |
| COC(=O)N1CCN(C(=N)c2cccc(NC(=O)Nc3ccc(S(=O)(=O)NCc4ccc(S(N)(=O)=O)cc4)cc3)c2)CC1 [SC83288, methyl 4-(imino(3-(3-(4-(N-(4-sulfamoylbenzyl)sulfamoyl)phenyl)ureido)phenyl)methyl) piperazine-1-carboxylate] | 8% | 14% | 9% | 4% | 17% | 14% | 13% | did not affect | 75% | -1% | 101% | 79% | 104% | 96% | inactive | 25% | 10 ± 1 nM | stable | 59% | 940 µg/mL (≈ 1490 µM) | VC (PK study; mouse i.v. 2 mg kg^−1): 0.549 L/kg; half-life (PK study; plasma, ip, 10 mg/kg, mice, i.p. 2.5, 5.0 and 10.0 mg kg^−1, read-out: effective half time t1/2): 29 to 55 min; half-life (PK study; plasma, iv, 2 mg/kg, mouse i.v. 2 mg kg^−1, read-out: t1/2 effective): 12 min; half-life (PK study; plasma, iv, 2 mg/kg, mouse i.v. 2 mg kg^−1, read-out: t1/2 initial): 9 min; half-life (PK study; plasma, iv, 2 mg/kg, mouse i.v. 2 mg kg^−1, read-out: t1/2 terminal): 43 min; AUC(0-inf) (PK study; plasma, ip, mouse i.p. 10 mg kg^−1): 2020 ng·h/mL; AUC(0-inf) (PK study; [7]): 891 ng·h/mL; C0 (PK study; [7]): 3640 ng/mL; Cmax (PK study; [7]): 2560 ng/mL; Tmax (PK study; [7]): 5 min; clearance (PK study; [7]): 37.4 mL/min/kg; MRT last (PK study; [7]): 16.8 min; time of peak plasma concentration (Cmax) (PK study): ≤ 30 min; remaining after 60 min of incubation [4]: 83%; Inhibition of control specific binding (A3 (h)): 0% |
| CCCCN1CCN(C(=N)c2cccc(NC(=O)Nc3ccc(S(=O)(=O)NCc4ccc(S(N)(=O)=O)cc4)cc3)c2)CC1 [SC81458, 4-(3-(3-((4-butylpiperazin-1-yl)(imino)methyl)phenyl)ureido)-N-(4-sulfamoylbenzyl) benzenesulfonamide] | 6% | 21% | 21% | -2% | 37% | 17% | 5% | did not affect | 36% | -8% | 98% | 51% | 87% | 89% | inactive | 24% | 18 ± 5 nM | stable | 73% | 890 µg/mL (≈ 1420 µM) | CL (PK study; mouse i.p. 20 mg kg^−1): 4,607 ml h^−1 kg^−1; half-life (PK study; plasma, ip, 20 mg/kg, mouse i.p. 20 mg kg^−1, read-out: t1/2 effective): 52 min; half-life (PK study; plasma, ip, 20 mg/kg, mouse i.p. 20 mg kg^−1, read-out: t1/2 terminal): 860 min; AUC(0-inf) (PK study; [8]): 4340 ng·h/mL; Cmax (PK study; [8]): 7380 ng/mL; Tmax (PK study; [8]): 30 min; bioavailability (PK study; plasma, ip, mouse i.p. 20 mg kg^−1, read-out: F, relative bioavailability compared to i.v.): 62%; MRT last (PK study; [8]): 74.4 min; time of peak plasma concentration (Cmax) (PK study): ≤ 30 min; remaining after 60 min of incubation [4]: 37%; Inhibition of control specific binding (A3 (h)): 0% |
